What all share (test): Kinase panel profiling at 1 µmol/L (MSA or IMAP), percentage inhibition
What all share (type): biochemical

In test [1] the target is panel of 255 wild-type kinases (Homo sapiens, UniProt P27448). Particulars: read-out: %-inhibition, MARK3.
Test [2] concerns the target T1, panel of 255 wild-type kinases (Homo sapiens, UniProt P43403).
T1 sequence (P43403 1-619): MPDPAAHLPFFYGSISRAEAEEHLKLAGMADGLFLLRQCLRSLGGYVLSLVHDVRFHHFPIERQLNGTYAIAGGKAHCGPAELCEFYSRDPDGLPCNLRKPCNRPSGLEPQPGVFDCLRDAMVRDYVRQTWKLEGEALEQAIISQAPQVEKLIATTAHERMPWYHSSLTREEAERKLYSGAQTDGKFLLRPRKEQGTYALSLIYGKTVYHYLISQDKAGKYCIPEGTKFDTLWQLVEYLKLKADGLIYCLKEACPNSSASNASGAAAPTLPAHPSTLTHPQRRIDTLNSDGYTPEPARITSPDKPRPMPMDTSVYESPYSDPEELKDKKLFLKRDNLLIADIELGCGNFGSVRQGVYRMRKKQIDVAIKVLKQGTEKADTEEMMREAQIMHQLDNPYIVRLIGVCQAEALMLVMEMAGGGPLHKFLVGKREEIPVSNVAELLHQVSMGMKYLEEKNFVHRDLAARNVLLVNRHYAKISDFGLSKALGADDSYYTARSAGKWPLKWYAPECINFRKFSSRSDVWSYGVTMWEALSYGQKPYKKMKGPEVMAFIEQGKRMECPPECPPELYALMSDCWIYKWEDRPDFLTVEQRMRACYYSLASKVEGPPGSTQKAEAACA
Particulars: read-out: %-inhibition at 1 µmol/L, ZAP70.

For test [3], the target named is panel of 255 wild-type kinases (Homo sapiens, UniProt P04626). Particulars: read-out: %-inhibition at 1 µmol/L, HER2.
Test [4] concerns the target panel of 255 wild-type kinases (Homo sapiens, UniProt P51451). The conditions noted are these: for inhibition at 1 µM: read-out: %-inhibition BLK.
Test [5] addresses T2, panel of 255 wild-type kinases (Homo sapiens, UniProt Q13976).
T2 sequence (Q13976 1-671): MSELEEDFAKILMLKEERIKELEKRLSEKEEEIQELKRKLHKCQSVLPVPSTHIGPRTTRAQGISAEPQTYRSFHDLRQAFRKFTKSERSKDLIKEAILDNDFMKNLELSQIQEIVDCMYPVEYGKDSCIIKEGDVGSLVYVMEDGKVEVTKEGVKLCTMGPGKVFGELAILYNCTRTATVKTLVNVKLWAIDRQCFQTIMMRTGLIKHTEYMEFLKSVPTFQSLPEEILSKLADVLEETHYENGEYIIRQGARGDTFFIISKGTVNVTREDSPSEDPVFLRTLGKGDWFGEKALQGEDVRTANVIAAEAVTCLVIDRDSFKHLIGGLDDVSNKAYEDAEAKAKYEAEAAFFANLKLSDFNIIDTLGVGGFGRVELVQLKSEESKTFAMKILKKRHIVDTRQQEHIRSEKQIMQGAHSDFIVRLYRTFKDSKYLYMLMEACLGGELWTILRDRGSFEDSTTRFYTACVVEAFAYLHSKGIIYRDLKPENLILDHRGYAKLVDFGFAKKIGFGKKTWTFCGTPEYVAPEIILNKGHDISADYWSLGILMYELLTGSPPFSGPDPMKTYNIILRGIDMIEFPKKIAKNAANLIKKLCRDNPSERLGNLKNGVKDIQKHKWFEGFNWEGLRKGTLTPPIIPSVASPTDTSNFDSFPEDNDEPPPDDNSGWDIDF
Particulars: read-out: %-inhibition at 1 µmol/L, PGK.

The target of test [6] is T3, panel of 255 wild-type kinases (Homo sapiens, UniProt Q13470).
T3 sequence (Q13470 1-666): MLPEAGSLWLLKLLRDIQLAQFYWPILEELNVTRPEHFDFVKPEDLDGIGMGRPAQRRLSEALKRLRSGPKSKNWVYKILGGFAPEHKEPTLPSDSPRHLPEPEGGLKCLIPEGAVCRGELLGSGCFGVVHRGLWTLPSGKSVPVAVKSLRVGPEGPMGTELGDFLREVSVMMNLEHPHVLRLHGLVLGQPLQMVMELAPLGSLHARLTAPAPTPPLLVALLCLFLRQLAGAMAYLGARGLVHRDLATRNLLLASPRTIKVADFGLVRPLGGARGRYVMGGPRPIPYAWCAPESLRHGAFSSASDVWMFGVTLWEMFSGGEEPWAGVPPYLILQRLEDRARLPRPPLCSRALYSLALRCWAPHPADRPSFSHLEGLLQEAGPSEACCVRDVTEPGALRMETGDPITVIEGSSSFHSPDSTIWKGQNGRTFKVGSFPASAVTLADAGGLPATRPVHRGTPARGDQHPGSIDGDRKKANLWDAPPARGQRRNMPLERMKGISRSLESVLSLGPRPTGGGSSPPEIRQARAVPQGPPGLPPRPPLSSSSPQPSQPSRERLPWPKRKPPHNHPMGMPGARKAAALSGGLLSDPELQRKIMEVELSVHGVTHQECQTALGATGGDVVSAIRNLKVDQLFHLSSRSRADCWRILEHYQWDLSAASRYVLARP
Particulars: read-out: %-inhibition at 1 µmol/L, TNK1.

Test [7] addresses panel of 255 wild-type kinases (Homo sapiens, UniProt Q9Y243). Particulars: read-out: %-inhibition AKT3.
The target of test [8] is panel of 255 wild-type kinases (Homo sapiens, UniProt P17948). The conditions noted are these: read-out: %-inhibition at 1 µmol/L, FLT1.
[9] abbreviates: MARK3, 1 µmol/L single concentration.
[10] abbreviates: kinase ZAP70, 1 µmol/L single concentration.
Setting [11] is: kinase HER2, 1 µmol/L single concentration.
Where [12] appears, read: BLK kinase assay, 1 µmol/L single concentration.
[13] abbreviates: kinase PGK, 1 µmol/L single concentration.
The mark [14] stands for this setting: kinase TNK1, 1 µmol/L single concentration.
Where [15] appears, read: AKT3 kinase assay, 1 µmol/L single concentration.
Where [16] appears, read: kinase FLT1, 1 µmol/L single concentration.

From PMC9516332 (Frontiers in Oncology, 2022) come the findings set out here.

Where two headings read alike, the source gives them in different places.

In the case of `Cn1cc(-c2cc3c(N4CCN(c5ncc([C@@](C)(N)c6ccc(F)cc6)cn5)CC4)ncnn3c2)cn1` [avapritinib], the inhibition at 1 µM is -6% in test [1] (setting [9]); 13% in test [2] (setting [10]); 12% in test [3] (setting [11]); 50% in test [4] (setting [12]); -2.58% in test [5] (setting [13]); 19% in test [6] (setting [14]). Further, the results for the inhibition at 1 µM in test [7] (setting [15]) and in test [8] (setting [16]) were -5% and 76%, respectively.

Turning to `C[C@H](Nc1ncnc2nc[nH]c12)c1cc2cccc(Cl)c2c(=O)n1-c1ccccc1` [duvelisib], the inhibition at 1 µM in test [1] (setting [9]) is 12%; in test [2] (setting [10]) it was 2%; in test [3] (setting [11]), 19%; in test [4] (setting [12]) it was -12%; in test [5] (setting [13]), 1.63%; in test [6] (setting [14]) it was -2.72%. The inhibition at 1 µM in test [7] (setting [15]) stood at 0.279%; in test [8] (setting [16]), 7.43%.

For the compound `COc1cc2ncnc(Nc3ccc(F)c(Cl)c3)c2cc1NC(=O)/C=C/CN1CCCCC1` [dacomitinib], the inhibition at 1 µM in test [1] (setting [9]) is 10%; in test [2] (setting [10]), -4%; in test [3] (setting [11]) it was 100%; in test [4] (setting [12]), 77%; in test [5] (setting [13]), 4%; in test [6] (setting [14]), 35%. The results for the inhibition at 1 µM in test [7] (setting [15]) and in test [8] (setting [16]) were -5% and 20%, respectively.

Take `CCN1CCN(c2ccc(Nc3cc(N(C)C(=O)Nc4c(Cl)c(OC)cc(OC)c4Cl)ncn3)cc2)CC1` [infigratinib]: the inhibition at 1 µM in test [1] (setting [9]) is -7.59%; in test [2] (setting [10]) it was -2.77%; in test [3] (setting [11]), 4.73%; in test [4] (setting [12]), 21%; in test [5] (setting [13]) it was -2%; in test [6] (setting [14]), 21%. Further, the inhibition at 1 µM is -7% in test [7] (setting [15]) and 91% in test [8] (setting [16]).

`Cn1cnc2c(F)c(Nc3ccc(Br)cc3Cl)c(C(=O)NOCCO)cc21` [selumetinib]: the inhibition at 1 µM in test [1] (setting [9]) is -6%; in test [2] (setting [10]), -1.11%; in test [3] (setting [11]), 3%; in test [4] (setting [12]) it was -6%; in test [5] (setting [13]), -2%; in test [6] (setting [14]), -8%. Further, the results for the inhibition at 1 µM in test [7] (setting [15]) and in test [8] (setting [16]) were -6.42% and 4.22%, respectively.

Turning to `CNC(=O)c1ccc(-c2cnc3ncc(Cc4ccc5ncccc5c4)n3n2)cc1F` [capmatinib], the inhibition at 1 µM was -0.936% in test [1]; 4% in test [2]; 9% in test [3]; -4% in test [4]; -4.5% in test [5]; -11% in test [6]. Also, the values for the inhibition at 1 µM in test [7] and in test [8] were -5% and 5.7%, respectively.

For `COC(=O)N[C@@H](C)CNc1nccc(-c2cn(C(C)C)nc2-c2cc(Cl)cc(NS(C)(=O)=O)c2F)n1` [encorafenib], the inhibition at 1 µM in test [1] (setting [9]) is 8%; in test [2] (setting [10]), 0.195%; in test [3] (setting [11]), 4.47%; in test [4] (setting [12]) it was 10%; in test [5] (setting [13]), -1.28%; in test [6] (setting [14]), -3.4%. For the same compound, the figures for the inhibition at 1 µM in test [7] (setting [15]) and in test [8] (setting [16]) were -0.872% and 17%, respectively.

`Cc1cc(Nc2ncnc3ccc(NC4=NC(C)(C)CO4)cc23)ccc1Oc1ccn2ncnc2c1` [tucatinib]: the inhibition at 1 µM in test [1] (setting [9]) is -10%; in test [2] (setting [10]), 3.36%; in test [3] (setting [11]), 101%; in test [4] (setting [12]) it was 2.27%; in test [5] (setting [13]) it was 0.26%; in test [6] (setting [14]), 4.33%. Besides, the inhibition at 1 µM was -4.58% in test [7] (setting [15]) and 3.22% in test [8] (setting [16]).

As to `C=CC(=O)N1CCC([C@@H]2CCNc3c(C(N)=O)c(-c4ccc(Oc5ccccc5)cc4)nn32)CC1` [zanubrutinib], the inhibition at 1 µM was -1.28% in test [1] (setting [9]); 2% in test [2] (setting [10]); 69% in test [3] (setting [11]); -2.64% in test [5] (setting [13]); 1.66% in test [6] (setting [14]); -3% in test [7] (setting [15]). Moreover, the inhibition at 1 µM in test [8] (setting [16]) is 2.22%. In addition, the “%-inhibition BLK” value in test [4] (setting [12]) is listed as 98%.

On to `Cn1cnc2c(F)c(Nc3ccc(Br)cc3F)c(C(=O)NOCCO)cc21` [binimetinib], for which the inhibition at 1 µM in test [1] (setting [9]) was 7%; in test [2] (setting [10]) it was -1.09%; in test [3] (setting [11]) it was 1.43%; in test [4] (setting [12]) it was 10%; in test [5] (setting [13]), -3%; in test [6] (setting [14]) it was -8%. Also, the inhibition at 1 µM in test [7] (setting [15]) was -5.69%; in test [8] (setting [16]) it was 10%.

Consider `COc1ccc(CN2C3CC2CN(c2ccc(-c4cc(OCC(C)(C)O)cn5ncc(C#N)c45)cn2)C3)cn1` [selpercatinib], for which the inhibition at 1 µM in test [1] (setting [9]) turned out to be 45%; in test [2] (setting [10]), 8%; in test [3] (setting [11]), 2.47%; in test [4] (setting [12]), 76%; in test [5] (setting [13]) it was 0.302%; in test [6] (setting [14]), 30%. Moreover, the inhibition at 1 µM in test [7] (setting [15]) is -0.71%; in test [8] (setting [16]), 98%.

Take `CN1CCN(c2ccc(C(=O)Nc3n[nH]c4ccc(Cc5cc(F)cc(F)c5)cc34)c(NC3CCOCC3)c2)CC1` [entrectinib]: the inhibition at 1 µM in test [1] (setting [9]) was 15%; in test [2] (setting [10]) it was 2.19%; in test [3] (setting [11]), 22%; in test [4] (setting [12]), 86%; in test [6] (setting [14]) it was 99%; in test [7] (setting [15]), -1.28%. Besides, the inhibition at 1 µM in test [8] (setting [16]) worked out at 76%.
